Reference: paper PMC5041153, “Presumed LRP1-targeting transport peptide delivers β-secretase inhibitor to neurons in vitro with limited efficiency” (Scientific Reports, 2016)
Where a SMILES comes first, the peptide text is derived from it. [ ]: non-standard residue; d: D form. Sta = CC(C)C[C@H](N)[C@@H](O)CC(=O)O

Legend:
[1] = tested on: SH-SY5Y wild-type cells; settings: 30 min pre-treatment, 1 h incubation, flow cytometry, n = 3; for decrease of uptake on treatment with EIPA: 60 μM EIPA, 3 μM peptide or 0.75 mg/mL 70 kDa dextran; for decrease of uptake in the presence of Dynasore: 100 μM Dynasore, serum-free medium, 3 μM peptide or 5 μg/mL transferrin
Method: Cell fluorescence distributions of cells treated with (a) 100 μM Dynasore or (b) 60 μM EIPA. […] Background cell fluorescence of only inhibitor-treated cells is shown (grey). Distributions shown are representative examples of three independent experiments. (c,d) Mean cell fluorescence intensity of the distributions shown in (a) or (b), respectively. The markers transferrin (Trf) and Dextran are shown for reference. (e) Frequency of cells in each of the two subpopulations (Negative or Positive) present upon treatment with ANG, as defined by the gates shown in the fluorescence distribution in (b). Numerical data are represented as mean ± SD (n = 3). *P ≤ 0.05 and **P ≤ 0.01, one-way ANOVA followed by Dunnet test.
For the pharmacological inhibition of endocytosis, we used Dynasore to inhibit clathrin-mediated endocytosis and 5-(N-Ethyl-N-isopropyl)amiloride (EIPA) to block macropinocytosis. […] To verify their inhibitory effects, we used fluorescently labeled human transferrin and 70 kDa dextran, respectively. […] Dynasore-treated cells were washed thrice with acidic wash buffer (0.2 M acetic acid and 0.2 M NaCl) and once with PBS prior to being harvested with trypsin for their analysis by flow cytometry. EIPA-treated cells were washed once with PBS, twice with acetate wash buffer (0.1 M sodium acetate and 0.05 M NaCl, pH 5.5) for 5 min each, and finally once more with PBS prior to being harvested with trypsin for their analysis by flow cytometry.

[2] = tested on: SH-SY5Y cells; experiment: Cellular internalization of TAMRA-labeled peptides by flow cytometry; type: cell-based, human; settings: FBS-supplemented medium, n = 3
Method: Figure 2 Cellular internalization of peptidic bioconjugates in SH-SY5Y neurons. Mean cell fluorescence intensity was measured by flow cytometry after continuous incubation with the fluorescent TAMRA-labeled bioconjugates in FBS-supplemented medium for increasing time periods. Values were normalized against the fluorescence background of untreated cells and expressed as fold increase. (a) Internalization kinetics of ANG-SI, ANG or SI at 1 μM (mean ± SD, n = 3). (b) Energy-dependence of the internalization of ANG-SI at 37 °C and 4 °C (mean ± SD, n = 3). ***P ≤ 0.001 and ****P ≤ 0.0001, unpaired Student’s t test. (c) Confocal images of cells incubated with ANG-SI, ANG or SI (red) for 1 h. Cells’ perimeter and nuclei have been delineated for reference. Scale bar 10 μm. […]
To study the uptake of the ANG conjugates, cells were incubated with the different fluorescently labeled peptides at 1 μM in FBS-supplemented medium for increasing periods of time, after which they were washed according to previously established protocols[50] and harvested with trypsin for their analysis by flow cytometry. The mean fluorescence values obtained from the analysis were normalized against the background fluorescence of untreated cells and were presented as fold-increase of this intensity. […]

[3] = molecular target: T1, BACE1 (Homo sapiens, UniProt P56817); experiment: Activity test on human neurons: Aβ38, Aβ40, Aβ42 in supernatant by ELISA; type: cell-based; settings: 6 h, swAPP SH-SY5Y cells
T1 construct: SH-SY5Y cells overexpressing either Swedish-mutant APP or the isoforms APP695 or APP751 were seeded in 24-well plates; endogenous in cells; host or cells: SH-SY5Y cells overexpressing Swedish-mutant APP (also APP695 or APP751 lines)
Method: Figure 5 BACE1-inhibitory activity of the bioconjugates. […] The content of Aβ peptides was measured in the cells’ supernatant upon treatment and normalized setting the values of control DMSO-treated cells as 100% (Mean ± SD, n = 3–6). […] GAPDH was used as loading control. (b) Inhibitory activity of the ANG-SI bioconjugate at a range of concentrations (5–100 μM) after 6 h incubation with swAPP cells (Mean ± SD, n = 3–6). *P ≤ 0.05, **P ≤ 0.01, ***P ≤ 0.001, ****P ≤ 0.0001, one-way ANOVA followed by Dunnet test.
Supernatant from the tissue culture plates was then collected in low protein-binding tubes and analyzed by enzyme-linked immunosorbent assay with the Multi-Spot Assay System from Meso Scale Discovery (Rockville, MD) detecting human Aβ38, Aβ40 and Aβ42 peptides (#K15200E,) following manual’s instructions. The values obtained for the different conjugates varied in intensity (Aβ42 ~70,000 RU, Aβ40 ~400,000 RU and Aβ38 ~4,000 RU) and were normalized for the basal Aβ level detected in the supernatant of DMSO-treated cells, which was set as 100%.

[4] = molecular target: T2, purified BACE1 enzyme (Homo sapiens, UniProt P56817); experiment: Activity test against purified BACE1 enzyme (cell-free, SensoLyte 520 β-secretase assay kit); type: biochemical; settings: cell-free assay of purified BACE1; mean of n = 3, except ANG-PEG-SI n = 2; CI 95% printed alongside; read-out: IC50 (concentration at which 50% of relative cleavage was achieved)
T2 construct: purchased AnaSpec (Fremont, CA)
Method: Figure 1 Peptidic bioconjugates and their activity on purified BACE1 enzyme. (a) Scheme of the main bioconjugates used in this study with their corresponding sequences.
A range of concentrations of the different bioconjugates were tested in a cell-free assay of purified BACE1 enzyme using the SensoLyte 520 β–secretase assay kit from AnaSpec (Fremont, CA) following manufacturer’s guidelines.

[5] = tested on: wild type SH-SY5Y cells; type: cell-based, human; settings: 5 μM, continuous exposure over 72 h, RTCA xCELLigence
Method: Figure S7 – Activity of the TAT-SI and TRP-SI bioconjugates on swAPP-overexpressing SH-SY5Y cells. […]
μM in FBS-supplemented medium. Mean ± SD (n=3). **P<0.01 and ****P<0.0001, one-way ANOVA followed […]
Figure S8 – Cytotoxicity of the peptides. Cell growth was monitored over 72 h using wild type SH-SY5Y cells during continuous exposure to the peptides at 5 μM using a Real-Time Cell Analysis (RTCA) xCELLigence system from Roche (Rotkreuz, Switzerland). Briefly, cells were seeded on the E-plates (10,000 cells/well) and after one day the medium was replaced by fresh medium containing the corresponding peptide and the cells were grown for 72 h. Cell growth was monitored with the RTCA system over 72 h during continuous exposure to the peptides at 5 μM. […]

T1 sequence (P56817 46-501): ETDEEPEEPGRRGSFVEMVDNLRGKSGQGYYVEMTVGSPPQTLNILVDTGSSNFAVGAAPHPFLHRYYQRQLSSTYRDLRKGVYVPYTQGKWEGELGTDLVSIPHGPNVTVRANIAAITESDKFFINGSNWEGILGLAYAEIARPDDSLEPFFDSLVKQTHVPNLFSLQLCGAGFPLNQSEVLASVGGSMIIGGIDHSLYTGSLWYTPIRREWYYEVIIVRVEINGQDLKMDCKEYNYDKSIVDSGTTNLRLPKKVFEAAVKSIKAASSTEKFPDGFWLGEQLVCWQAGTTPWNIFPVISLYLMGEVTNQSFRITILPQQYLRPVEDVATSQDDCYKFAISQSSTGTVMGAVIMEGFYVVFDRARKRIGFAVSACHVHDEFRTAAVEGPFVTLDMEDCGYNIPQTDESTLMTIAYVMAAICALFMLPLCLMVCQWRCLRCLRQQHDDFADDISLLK
T2 sequence (P56817 46-501): as above

With “EVN-statine-VAEFTFFYGGSRGKRNNFKTEEY (N-terminal EVN-statine) [ANG-SI, SI coupled to the transport peptide ANG]” the “decrease of uptake on treatment with EIPA” value [1] was 50%, the “decrease of uptake in the presence of Dynasore” value [1] was 20% and the “internalization into cells (mean cell fluorescence intensity)” value ([2]; TAMRA-labeled peptide, 1 μM, up to 5 h continuous incubation, 37 °C) was “taken up by cells”. For the same compound, the “internalization at 4 °C instead of 37 °C (energy dependence)” value ([2]; TAMRA-labeled, 1 h pre-incubation at 4 °C) was “significantly decreased”, the “decrease in the enzymatic activity of BACE1” value ([3]; concentrations five times higher than 5 μM, n = 3–6) was ~ 25% and the “decrease in the enzymatic activity of BACE1” value ([3]; concentrations twenty times higher than 5 μM, n = 3–6) was ~ 60%.

With “EVN-statine-VAEF-PEG-TFFYGGSRGKRNNFKTEEY [ANG-PEG-SI, ANG and SI joined by an inert poly(ethylene glycol) linker]” the IC50 [4] was 87.1 nM and the “effect on Aβ peptide levels (cellular activity)” value ([3]; 5 μM, FBS-supplemented medium, normalized to DMSO-treated cells) was “did not show cellular activity”.

“transferrin: fluorescently labeled human transferrin, clathrin-mediated endocytosis marker [reference compound]” was tested, and the “decrease of uptake in the presence of Dynasore” value [1] was ~ 35%.

With `CC[C@H](C)[C@H](NC(=O)[C@H](CCCCN)NC(=O)[C@H](CCCCN)NC(=O)[C@H](C)NC(=O)[C@H](CC(C)C)NC(=O)[C@H](C)NC(=O)[C@H](C)NC(=O)[C@H](CC(C)C)NC(=O)[C@H](C)NC(=O)[C@H](CCCCN)NC(=O)[C@H](CC(C)C)NC(=O)[C@H](CC(N)=O)NC(=O)[C@@H](NC(=O)[C@H](CCCCN)NC(=O)CNC(=O)[C@H](CC(C)C)NC(=O)[C@H](CC(C)C)NC(=O)[C@H](Cc1ccc(O)cc1)NC(=O)CNC(=O)[C@H](C)NC(=O)[C@H](CO)NC(=O)[C@H](CC(N)=O)NC(=O)[C@H](CC(C)C)NC(=O)[C@@H](NC(=O)[C@H](Cc1c[nH]c2ccccc12)NC(=O)CNC(=O)[C@H](Cc1ccccc1)NC(=O)[C@H](CCC(=O)O)NC(=O)[C@H](C)NC(=O)[C@@H](NC(=O)C[C@H](O)[C@H](CC(C)C)NC(=O)[C@H](CC(N)=O)NC(=O)[C@@H](NC(=O)[C@@H](N)CCC(=O)O)C(C)C)C(C)C)[C@@H](C)O)[C@@H](C)CC)C(=O)N[C@@H](CC(C)C)C(=O)O` [TRP-SI] (H-EVN[Sta]VAEFGWTLNSAGYLLGKINLKALAALAKKIL-OH) the “cytotoxicity (cell growth)” value [5] was “cytotoxic effect”.

For `C[C@@]1(c2cc(-c3cncnc3)c(F)cc2F)CCSC(N)=N1` [LY2811376, reference compound], the “decrease of the levels of Aβ peptides 38, 40 and 42 in supernatant” value ([3]; 5 μM, FBS-supplemented medium, normalized to DMSO-treated cells = 100%, n = 3–6) was greater than 90%.

With dextran [reference compound] the “decrease of uptake on treatment with EIPA” value [1] was 50%.
